Assay results published in PubChem BioAssay AID2060501 (Molecular Pharmacology Branch, DTP, NCI, 2025).

Test system: 282377-053-R-J1-PDC complex spheroids, viability
Experiment: Anticancer human tumor 282377-053-R-J1-PDC patient-derived colon adenocarcinoma cell line growth inhibition [GQUAD]
Details: for IC50: curve of first compound; for viability, T/C: stronger effect = lower value; active = viability on the fitted dose curve at most 10% of control; inactive = the rest
Description: DNA G-quadruplex Stabilizer Agents in Combinations in Complex Spheroids
A high-throughput screen of multi-cell type tumor spheroids was designed to identify active combinations of DNA G-quadruplex stabilizer agents and targeted small molecules. Complex spheroids include a stromal component modeled by human endothelial cells (HUVEC) and fibroblasts modeled by human mesenchymal stem cells (MSCs). The concentration ranges selected for each drug and investigational agent were based upon clinically achievable concentrations if the clinical Cmax of the agent was known.
Compounds. The drugs and investigational agents: pidnarulex (CX-5461; NSC782164), APTO-253 (NSC789042), BRACO-19 (NSC847499), peposertib (NSC802822), ceralasertib (NSC780249), elimusertib (NSC800525), camonsertib (NSC841442), AZD-1390 (NSC803789), olaparib (NSC753686), talazoparib (NSC767125), ART-558 (NSC835418), sotorasib (NSC818433), MRTX-1133 (NSC836407), SN-38 (NSC673596), topotecan (NSC609699), etoposide (NSC141540), doxorubicin (NSC123127), gemcitabine (NSC613327), 5-fluorouracil (NSC19893), paclitaxel (NSC125973), vemurafenib (NSC761431), panobinostat (NSC761190), R-306465 (JNJ-16241199; NSC773264), adavosertib (NSC754352), TP-3654 (NSC805149), carboplatin (NSC241240), KSQ-4279 (NSC840948), and staurosporine (NSC755774) were obtained from the National Cancer Institute (NCI) Developmental Therapeutics Program Chemical Repository (34). The FDA-approved anticancer drug set is available from the NCI Developmental Therapeutics Program. […] The stock solutions were prepared in dimethyl sulfoxide (DMSO, Sigma-Aldrich, St. Louis, MO, cat. D2650) at 800-fold the tested concentration and stored at -70 degrees C prior to their use. All drugs and investigational agents were tested over a range starting from a high concentration at or near the clinical Cmax and decreasing in half-log increments. If the clinical Cmax for an agent had not been determined, the highest concentration tested was 10 microM.
2.3 Cell Culture. All cells were maintained in an incubator at 37 degrees C and 5% CO2 with 95% humidity. The PDC lines were cultured according to standard operating procedures established by the NCI PDMR. All PDCs were thawed and cultured in Matrigel-coated flasks prepared with a working solution of 1X Ham's F-12 nutrient mix, without supplementation (Invitrogen, cat. 11765054), 100 U/mL penicillin-streptomycin (Invitrogen, cat. 15140122), and 2.5% Matrigel (Corning Inc., cat. 354248) for the first three passages. The 857933-349-R-J2-PDC line was cultured in 6C/Colon 1B media, which includes advanced DMEM/F-12 (Thermo Fisher Scientific, cat. 12634028), 10 mM HEPES (Thermo Fisher Scientific, cat. 15630080), 1X GlutaMAX supplement (Thermo Fisher Scientific, cat. 35050061), 0.1 mg/mL primocin (InvivoGen, cat. ant-pm-2), 10% defined fetal bovine serum, heat inactivated (HyClone Laboratories Inc., cat. SH30070.03HI), 50% L-WRN conditioned media (ATCC, cat. CRL-3276), 1.25 mM N-Acetyl-L-cysteine (Sigma-Aldrich, cat. A9165), 10 mM nicotinamide (Sigma-Aldrich, cat. N0636), 1X B-27 supplement (Thermo Fisher Scientific, cat. 17504044), 1X N-2 supplement (Thermo Fisher Scientific, cat. 17502048), 10 microM Y-27632 dihydrochloride (Tocris Bioscience, cat. 1254), and 50 ng/mL human EGF recombinant protein (Thermo Fisher Scientific, cat. PHG0311). The 485176-168-R4-J1-PDC line was cultured in Panc media, which includes all 6C/Colon 1B media components plus 100 ng/mL human FGF-10 (Thermo Fisher Scientific, cat. 100-26), 500 nM SB-431542 (Selleckchem, cat. S1067), and gastrin (Tocris, cat. 3006).
[…]

[1] = second compound 0.0316 µM, first compound 0.0316 µM
[2] = second compound 0.0316 µM, first compound 0.1 µM
[3] = second compound 0.0316 µM, first compound 0.316 µM
[4] = second compound 0.0316 µM, first compound 1 µM
[5] = second compound 0.0316 µM, first compound 3.16 µM
[6] = second compound 0.0316 µM, first compound 10 µM
[7] = second compound 0.1 µM, first compound 0.0316 µM
[8] = second compound 0.1 µM, first compound 0.1 µM
[9] = second compound 0.1 µM, first compound 0.316 µM
[10] = second compound 0.1 µM, first compound 1 µM
[11] = second compound 0.1 µM, first compound 3.16 µM
[12] = second compound 0.1 µM, first compound 10 µM
[13] = second compound 0.316 µM, first compound 0.0316 µM
[14] = second compound 0.316 µM, first compound 0.1 µM
[15] = second compound 0.316 µM, first compound 0.316 µM
[16] = second compound 0.316 µM, first compound 1 µM
[17] = second compound 0.316 µM, first compound 3.16 µM
[18] = second compound 0.316 µM, first compound 10 µM
[19] = second compound 1 µM, first compound 0.0316 µM
[20] = second compound 1 µM, first compound 0.1 µM
[21] = second compound 1 µM, first compound 0.316 µM
[22] = second compound 1 µM, first compound 1 µM
[23] = second compound 1 µM, first compound 3.16 µM
[24] = second compound 1 µM, first compound 10 µM
[25] = second compound 3.16 µM, first compound 0.0316 µM
[26] = second compound 3.16 µM, first compound 0.1 µM
[27] = second compound 3.16 µM, first compound 0.316 µM
[28] = second compound 3.16 µM, first compound 1 µM
[29] = second compound 3.16 µM, first compound 3.16 µM
[30] = second compound 3.16 µM, first compound 10 µM
[31] = second compound 10 µM, first compound 0.0316 µM
[32] = second compound 10 µM, first compound 0.1 µM
[33] = second compound 10 µM, first compound 0.316 µM
[34] = second compound 10 µM, first compound 1 µM
[35] = second compound 10 µM, first compound 3.16 µM
[36] = second compound 10 µM, first compound 10 µM
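Note: spheroids exposed to compounds for 7 days before readout.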
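Throughout, for viability, T/C: percent of vehicle DMSO control viability with 100% = untreated-like growth.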

CC1COCCN1c1cc(-c2ccnn2C)c2ccnc(-c3ccn[nH]3)c2n1 (centres undefined) + Cc1[nH]c2ccc(F)cc2c1-c1nc2c3cccnc3c3ncccc3c2[nH]1
0.506 µM: IC50 (second compound 0.1 µM)
0.4 µM: IC50 (second compound 0.316 µM)
0.659 µM: IC50 (second compound 0.0316 µM)
inactive: viability, T/C [1] 83.8% | viability, T/C [2] 82.6% | viability, T/C [3] 73.3% | viability, T/C [4] 36.4% | viability, T/C [5] 27.5% | viability, T/C [6] 20.9% | viability, T/C [7] 79.3% | viability, T/C [8] 85% | viability, T/C [9] 56.5% | viability, T/C [10] 37.3% | viability, T/C [11] 24.2% | viability, T/C [12] 19.7% | viability, T/C [13] 103% | viability, T/C [14] 77.5% | viability, T/C [15] 49.4% | viability, T/C [16] 37.7% | viability, T/C [17] 30.5% | viability, T/C [18] 17.6% | viability, T/C [19] 87.2% | viability, T/C [20] 79.3% | viability, T/C [21] 59% | viability, T/C [22] 31.9% | viability, T/C [23] 21.5% | viability, T/C [24] 18.8% | viability, T/C [25] 52.9% | viability, T/C [26] 38.6% | viability, T/C [27] 12.8% | viability, T/C [31] 35.6% | viability, T/C [32] 23.9% | viability, T/C [33] 9.76%
< 0.0316 µM: IC50 (second compound 10 µM)
0.46 µM: IC50 (second compound 1 µM)
active: viability, T/C [28] 8.91% | viability, T/C [29] 4.88% | viability, T/C [30] 4.03% | viability, T/C [34] 5.71% | viability, T/C [35] 3.51% | viability, T/C [36] 2.86%
0.04 µM: IC50 (second compound 3.16 µM)

CC1COCCN1c1cc(C2(S(C)(=N)=O)CC2)nc(-c2ccnc3[nH]ccc23)n1 (centres undefined) + Cc1[nH]c2ccc(F)cc2c1-c1nc2c3cccnc3c3ncccc3c2[nH]1
> 10 µM: IC50 (second compound 0.0316 µM) | IC50 (second compound 0.316 µM)
inactive: viability, T/C [1] 85.5% | viability, T/C [2] 83.7% | viability, T/C [3] 101% | viability, T/C [4] 81.8% | viability, T/C [5] 78.5% | viability, T/C [6] 55.6% | viability, T/C [7] 90% | viability, T/C [8] 91.8% | viability, T/C [9] 82% | viability, T/C [10] 94.8% | viability, T/C [11] 61.8% | viability, T/C [12] 48.5% | viability, T/C [13] 94.5% | viability, T/C [14] 97.3% | viability, T/C [15] 65.4% | viability, T/C [16] 69.5% | viability, T/C [17] 84.5% | viability, T/C [18] 49.6% | viability, T/C [19] 100% | viability, T/C [20] 81.4% | viability, T/C [21] 87.3% | viability, T/C [22] 86.2% | viability, T/C [23] 57.7% | viability, T/C [24] 38.1% | viability, T/C [25] 65.2% | viability, T/C [26] 71% | viability, T/C [27] 56.2% | viability, T/C [28] 47.8% | viability, T/C [29] 31.9% | viability, T/C [30] 10.4% | viability, T/C [31] 41.6% | viability, T/C [32] 41% | viability, T/C [33] 49.8% | viability, T/C [34] 29.5% | viability, T/C [35] 18.1%
4.98 µM: IC50 (second compound 1 µM)
8.74 µM: IC50 (second compound 0.1 µM)
active: viability, T/C [36] 6.17%
< 0.0316 µM: IC50 (second compound 10 µM)
0.822 µM: IC50 (second compound 3.16 µM)
